In US6943178B2 (Wyeth, priority 2001, dated 2005):
pIC50, pKi: −log10 of the molar value. Structures can show the parent of a compound that is named as a salt. Where two headings read alike, the source gives them in different places.

Columns and labels:
serotonin transporter = biological target: T1, serotonin transporter (Rattus norvegicus, UniProt P31652); test: 3H-paroxetine displacement, serotonin transporter affinity; type: binding
T1 construct: displace ^3H-paroxetine from male rat frontal cortical membranes; from tissue; host or cells: male rat frontal cortex membranes
T1 sequence (P31652 whole entry): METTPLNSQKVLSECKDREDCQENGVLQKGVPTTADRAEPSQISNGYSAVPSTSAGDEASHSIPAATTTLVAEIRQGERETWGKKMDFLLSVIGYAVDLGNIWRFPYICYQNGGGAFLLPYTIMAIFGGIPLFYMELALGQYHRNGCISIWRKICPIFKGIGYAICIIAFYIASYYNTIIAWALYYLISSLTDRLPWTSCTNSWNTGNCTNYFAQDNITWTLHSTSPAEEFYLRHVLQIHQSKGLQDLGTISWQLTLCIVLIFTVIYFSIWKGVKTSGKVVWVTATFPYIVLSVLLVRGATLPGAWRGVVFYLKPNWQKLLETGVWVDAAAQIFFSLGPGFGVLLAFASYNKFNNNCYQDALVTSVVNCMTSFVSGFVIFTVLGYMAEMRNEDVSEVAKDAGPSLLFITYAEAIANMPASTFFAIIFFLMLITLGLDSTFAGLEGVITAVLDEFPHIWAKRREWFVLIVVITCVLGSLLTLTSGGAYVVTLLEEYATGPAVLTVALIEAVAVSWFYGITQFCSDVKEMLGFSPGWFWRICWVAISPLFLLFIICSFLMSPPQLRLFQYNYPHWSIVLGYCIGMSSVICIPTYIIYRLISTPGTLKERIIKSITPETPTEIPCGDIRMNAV

human 5-HT1A receptors = biological target: T2, human 5-HT1A receptors (Homo sapiens, UniProt P08908); test: [3H] 8-OHDPAT displacement, 5-HT1A receptor affinity; type: binding
T2 construct: expressed in transfected cells; host or cells: CHO cells
T2 sequence (P08908 1-422): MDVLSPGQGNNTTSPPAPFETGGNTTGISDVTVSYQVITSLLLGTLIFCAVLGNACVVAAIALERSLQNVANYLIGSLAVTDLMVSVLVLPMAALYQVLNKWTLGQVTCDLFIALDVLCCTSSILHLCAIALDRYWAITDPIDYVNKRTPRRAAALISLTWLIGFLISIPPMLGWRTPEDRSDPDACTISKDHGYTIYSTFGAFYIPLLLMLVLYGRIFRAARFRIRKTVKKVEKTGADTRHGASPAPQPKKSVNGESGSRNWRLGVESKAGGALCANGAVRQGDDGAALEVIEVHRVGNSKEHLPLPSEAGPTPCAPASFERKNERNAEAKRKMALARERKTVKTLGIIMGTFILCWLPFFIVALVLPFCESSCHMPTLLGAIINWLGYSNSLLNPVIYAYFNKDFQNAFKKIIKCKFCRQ
Source text: High affinity for the serotonin 5-HT1A receptor was established by testing the claimed compound's ability to displace [^3H] 8-OHDPAT (dipropylaminotetralin) from the 5-HT1A serotonin receptor following a modification of the procedure of Hall et al., J. Neurochem. 44, 1685 (1985) which utilizes CHO cells stably transfected with human 5-HT1A receptors.

[1] = biological target: T3, cloned human 5-HT1A receptors (Homo sapiens, UniProt P08908); test: 35S-GTPγS binding assay, 5-HT1A antagonist activity; type: biochemical
T3 construct: expressed in transfected cells
T3 sequence (P08908 1-422): T2 sequence (P08908 1-422)
Method: Antagonist activity at 5-HT1A receptors was established by using a ^35S-GTPγS binding assay similar to that used by Lazareno and Birdsall (Br. J. Pharmacol. 109: 1120, 1993), in which the test compound's ability to affect the binding of ^35S-GTPγS to membranes containing cloned human 5-HT1A receptors was determined. Agonists produce an increase in binding whereas antagonists produce no increase but rather reverse the effects of the standard agonist 8-OHDPAT. The test compound's maximum inhibitory effect is represented as the Imax, while its potency is defined by the IC50.

[2] = 35S-GTPγS binding, reversal of the effects of the standard agonist 8-OHDPAT
[3] = 35S-GTPγS binding, reversal of the effects of the standard agonist 8-OHDPAT, read-out: 5-HT1A Function IC50

| SMILES | melting point [°C] | pKi (serotonin transporter) | pKi (human 5-HT1A receptors) | pIC50 [1] | 5-HT1A Function Imax (maximum inhibitory effect) [1, 2] | pIC50 [1, 3] | pKi (human 5-HT1A receptors; displacement of [3H] 8-OHDPAT, CHO cells stably transfected with human 5-HT1A receptors, read-out: 5-HT1A Receptor Affinity KI) |
| --- | --- | --- | --- | --- | --- | --- | --- |
| O=c1ccoc2c3c(ccc12)OC(CN1CC=C(c2c[nH]c4ccc(F)cc24)CC1)CO3 (stereo not drawn) (as salt: fumarate) (hydrate or solvate) [Example 1, 3-[4-(5-Fluoro-1H-indol-3-yl)-3,6-dihydro-2H-pyridin-1-ylmethyl]-2,3-dihydro-7H-pyrano[2,3-f][1,4]benzodioxin-7-one] | 106 to 108 | – | – | – | – | – | – |
| Fc1ccc2[nH]cc(C3=CCN(CC4COc5ccc6c(c5O4)OCCC6)CC3)c2c1 (stereo not drawn) (as salt: oxalate) [Example 2, 5-Fluoro-3-[1,2,3,6-tetrahydro-1-[(2,3,8,9-tetrahydro-7H-pyrano[2,3-f][1,4]benzodioxin-2-yl)methyl]-4-pyridinyl]-1H-indole] | 146 to 148 | – | – | – | – | – | – |
| C1=C(c2c[nH]c3ccccc23)CCN(CC2COc3ccc4c(c3O2)OCCC4)C1 (stereo not drawn) (as salt: oxalate) [Example 4, 3-{1-(2,3,8,9-Tetrahydro-7H-[1,4]dioxino[2,3-h]chromen-2-ylmethyl)-1,2,3,6-tetrahydropyridin-4-yl}-1H-indole] | 140 | – | – | – | – | – | – |
| O=c1ccoc2c3c(ccc12)OC[C@H](CN1CC=C(c2c[nH]c4ccc(F)cc24)CC1)O3 [Example 1] | – | 8.57 | 6.92 | 8.63 | 100 | – | – |
| Fc1ccc2[nH]cc(C3=CCN(CC4COc5ccc6c(c5O4)OCCC6)CC3)c2c1 (stereo not drawn) [Example 2, 5-Fluoro-3-[1,2,3,6-tetrahydro-1-[(2,3,8,9-tetrahydro-7H-pyrano[2,3-f][1,4]benzodioxin-2-yl)methyl]-4-pyridinyl]-1H-indole] | – | 8.59 | 7.56 | – | 100 | 9.25 | – |
| O=C1CCOc2c1ccc1c2OC(CN2CC=C(c3c[nH]c4ccccc34)CC2)CO1 (stereo not drawn) [Example 3, 3-[4-(1H-indol-3-yl)-3,6-dihydro-2H-pyridin-1-ylmethyl]-2,3,6,7-tetrahydro-1,4,5-trioxa-phenanthren-8-one] | 210 | 8.56 | – | – | – | – | 6.81 |
| C1=C(c2c[nH]c3ccccc23)CCN(CC2COc3ccc4c(c3O2)OCCC4)C1 (stereo not drawn) [Example 4, 3-{1-(2,3,8,9-Tetrahydro-7H-[1,4]dioxino[2,3-h]chromen-2-ylmethyl)-1,2,3,6-tetrahydropyridin-4-yl}-1H-indole] | – | 9.05 | 7.36 | – | 87.0 | 9.42 | – |
